# Where a SMILES comes first, the peptide text is derived from it. [ ]: non-standard residue; d: D form. pGlu = O=C1CC[C@@H](C(=O)O)N1
# System: grass carp pituitary cells
# Experiment: RNA-seq of pituitary cells treated with GnRH3
# Assay type: cell-based, grass carp (Ctenopharyngodon idellus)
# Conditions: GnRH3 1 μM, 24 h
# Description: Then, total RNA was extracted from each well by TRIzol reagent (Yeasen) and DNase II was used to eliminate the interference of genomic DNA. The concentration and purity of each RNA sample were detected by a NanoDrop 2000 spectrophotometer, while the quality of RNA was identified on an Agilent 2100 Bioanalyzer using the RNA 6000 Nano Kit (Agilent Technologies, Santa Clara, CA, USA). […] In this study, a read depth of 0.6 billion 150-bp single-end reads was used and about 90% of reads were mapped to the genome. Gene expression levels were assigned individual values by being normalized to the number of transcripts per kilobase of exon model per million […]. […] The P-value indicated the credibility of each differential gene expression and was corrected by the false discovery rate (FDR) ([21]). […] In the present study, using grass carp pituitary cells as model, high-throughput RNA-seq was used to examine the pituitary actions of GnRH3 in teleost. […] The most abundant GO terms among the cellular component category were ‘intracellular part’, ‘membrane-bounded organelle’, ‘intracellular membrane-bounded organelle’, ‘organelle part’, and ‘intracellular organelle part’. Furthermore, the plentiful groups of biological processes were ‘metabolic process’, ‘organic substance metabolic process’, ‘primary metabolic process’, ‘cellular metabolic process’, and ‘biological regulation ( Figure 3A ).
smiles,measurement,setting,value
CC(C)C[C@H](NC(=O)[C@H](Cc1c[nH]c2ccccc12)NC(=O)CNC(=O)[C@H](Cc1ccc(O)cc1)NC(=O)[C@H](CO)NC(=O)[C@H](Cc1c[nH]c2ccccc12)NC(=O)[C@H](Cc1c[nH]cn1)NC(=O)[C@@H]1CCC(=O)N1)C(=O)N1CCC[C@H]1C(=O)NCC(N)=O [GnRH3] ([pGlu]HWSYGWLPG-NH2),"fold change (FC), suhb mRNA","3-Beta-hydroxysteroid sulfotransferase, FDR 2.86E-22",0.44
same,"fold change (FC), atp5me mRNA","ATP synthase subunit e, FDR 5.40E-07",0.69
same,"fold change (FC), arpc4 mRNA","Actin-related protein 2/3 subunit 4-like, FDR 1.86E-42",0.66
same,"fold change (FC), creb2 mRNA","Activating transcription factor 4b, FDR 1.69E-07",1.56
same,"fold change (FC), cart2 mRNA","Amphetamine-regulated transcript II precursor, FDR 1.73E-22",19.16
same,"fold change (FC), anx11 mRNA","Annexin 11a, FDR 0",3.17
same,"fold change (FC), mx1 mRNA","Antiviral effector Mx3, FDR 0.004203",0.29
same,"fold change (FC), manf mRNA","Astrocyte-derived neurotrophic factor, FDR 6.58E-124",1.71
same,"fold change (FC), npr3 mRNA","Atrial natriuretic peptide receptor 3 isoform X1, FDR 0",11.53
same,"fold change (FC), e2.7.3.2 mRNA","Brain creatine kinase b, FDR 0",3.88
same,"fold change (FC), agrb1 mRNA","Brain-specific angiogenesis inhibitor 1-like, FDR 0",8.87
same,"fold change (FC), calm mRNA","Calmodulin, FDR 2.37E-221",0.68
same,"fold change (FC), ctsl mRNA","Cathepsin La isoform X1, FDR 0",2.55
same,"fold change (FC), cckar mRNA","Cholecystokinin receptor-like isoform, FDR 0.40",1.41
same,"fold change (FC), chd4 mRNA","Chromodomain-DNA-binding protein 4, FDR 3.30E-172",0.64
same,"fold change (FC), ctro mRNA","Citron Rho-interacting kinase, FDR 3.29E-164",5.24
same,"fold change (FC), bha15 mRNA","Class A basic helix-loop-helix protein 15, FDR 0",1.66
same,"fold change (FC), sod1 mRNA","Copper/zinc superoxide dismutase, FDR 1.09E-31",0.69
same,"fold change (FC), mdh1 mRNA","Cytosolic malate dehydrogenase, FDR 4.31E-77",0.68
same,"fold change (FC), dgkz mRNA","Diacylglycerol kinase zeta-like isoform X1, FDR 0.003213",0.41
same,"fold change (FC), drd2 mRNA","Dopamine D2 receptor, FDR 2.63E-37",0.35
same,"fold change (FC), rergl mRNA","Estrogen-regulated inhibitor-like protein, FDR 2.35E-26",6.29
same,"fold change (FC), npy2r mRNA","Europeptide Y receptor type 2-like, FDR 0.07342027",0.44
same,"fold change (FC), fabp7 mRNA","Fatty acid binding protein 7, FDR 5.12E-107",0.50
same,"fold change (FC), fabp3 mRNA","Fatty-acid binding protein 3b, FDR 1.56E-177",0.63
same,"fold change (FC), fth1 mRNA","Ferritin heavy chain, FDR 0",1.90
same,"fold change (FC), gmpr1 mRNA","GMP reductase 1, FDR 2.64E-126",0.61
same,"fold change (FC), bip mRNA","GRP78, FDR 5.39E-31",1.78
same,"fold change (FC), ggh mRNA","Gamma-glutamyl hydrolase, FDR 1.06E-186",1.51
same,"fold change (FC), grp mRNA","Gastrin-releasing peptide-like, FDR 1.46E-176",1.52
same,"fold change (FC), gst mRNA","Glutathione S-transferase, FDR 8.59E-06",0.67
same,"fold change (FC), gphb5 mRNA","Glycoprotein hormone beta-5, FDR 2.13E-64",0.69
same,"fold change (FC), gthα mRNA","Glycoprotein hormones alpha chain, FDR 0",1.28
same,total number of different expression genes (DEGs),"three replicates, TPM >5, FDR <0.05",820
same,number of downregulated genes,"three replicates, TPM >5, FDR <0.05, FC <0.7",575
same,number of upregulated genes,"three replicates, TPM >5, FDR <0.05, FC >1.5",245
same,"fold change (FC), pa2g3 mRNA","Group 3 secretory phospholipase A2-like, FDR 6.47E-212",0.29
same,"fold change (FC), hpt mRNA","Haptoglobin-like, FDR 4.16E-131",5.16
same,"fold change (FC), hmgb1 mRNA","High-mobility group box 1, FDR 7.95E-46",0.69
same,"fold change (FC), hint1 mRNA","Histidine triad nucleotide-binding protein 1, FDR 7.80E-16",0.66
same,"fold change (FC), h2a mRNA","Histone H2A, FDR 1.56E-20",0.63
same,"fold change (FC), h2b3 mRNA","Histone H2B 3, FDR 4.58E-23",0.53
same,"fold change (FC), h4 mRNA","Histone H4, FDR 0.002615",0.68
same,"fold change (FC), inhba mRNA","Inhibin-beta A, FDR 1.08E-11",1.90
same,"fold change (FC), il10ra mRNA","Interleukin-10 receptor 1, FDR 0.009871",27.19
same,"fold change (FC), erg7 mRNA","Lanosterol synthase, FDR 1.00E-62",0.43
same,"fold change (FC), lepr mRNA","Leptin receptor long form, FDR 6.73E-61",2.60
same,"fold change (FC), lhβ mRNA","Luteinizing hormone, FDR 0",1.32
same,"fold change (FC), rfx1 mRNA","MHC class II regulatory factor RFX1, FDR 0",0.28
same,"fold change (FC), mvp mRNA","Major vault protein, FDR 2.14E-255",0.64
same,"fold change (FC), mshr1 mRNA","Melanocyte-stimulating hormone receptor, FDR 0",0.43
same,"fold change (FC), m3k20 mRNA","Mitogen-activated protein kinase kinase 20, FDR 0.00526",0.31
same,"fold change (FC), smad7 mRNA","Mothers against decapentaplegic homolog 7, FDR 7.44E-31",1.78
same,"fold change (FC), mcfd2 mRNA","Multiple coagulation factor deficiency protein, FDR 3.57E-236",1.65
same,"fold change (FC), marcksl1b mRNA","Myristoylated alanine-rich C substrate 2, FDR 2.63E-101",0.67
same,"fold change (FC), nab1 mRNA","NGFI-A-binding protein 1, FDR 3.65E-131",5.88
same,"fold change (FC), nec1 mRNA","Neuroendocrine convertase 1, FDR 0",1.54
same,"fold change (FC), nfasc mRNA","Neurofascin, FDR 5.61E-52",10.71
same,"fold change (FC), nmb mRNA","Neuromedin-B-like, FDR 4.39E-07",3.29
same,"fold change (FC), nltp mRNA","Non-specific lipid-transfer protein, FDR 2.86E-12",0.41
same,"fold change (FC), nucb1 mRNA","Nucleobindin-1 precursor, FDR 1.72E-149",1.56
same,"fold change (FC), nlrp3 mRNA","PYD domains-containing protein 3-like, FDR 0.000497",0.26
same,"fold change (FC), fkbp11 mRNA","Peptidyl-prolyl cis-trans isomerase, FDR 0",1.94
same,"fold change (FC), gpr61 mRNA","Probable G-protein coupled receptor-like, FDR 2.17E-78",7.06
same,"fold change (FC), pdyn mRNA","Proenkephalin-B-like isoform X1, FDR 7.38E-17",5.14
same,"fold change (FC), prl mRNA","Prolactin, FDR 0",1.22
same,"fold change (FC), s100b mRNA","Protein S100-B, FDR 3.01E-240",0.31
same,"fold change (FC), ppp1r17 mRNA","Protein phosphatase 1 regulatory 17-like, FDR 2.87E-10",0.68
same,"fold change (FC), r4rl2 mRNA","Reticulon 4 receptor-like 2b precursor, FDR 6.85E-299",93.68
same,"fold change (FC), estd mRNA","S-formylglutathione hydrolase, FDR 4.80E-36",0.37
same,"fold change (FC), scg2 mRNA","Secretogranin II precursor, FDR 0",1.51
same,"fold change (FC), sqstm1 mRNA","Sequestosome-1 isoform X1, FDR 0",1.69
same,"fold change (FC), cdc42bp mRNA","Serine/threonine-protein kinase MRCK beta, FDR 0.004184",0.37
same,"fold change (FC), plk2 mRNA","Serine/threonine-protein kinase PLK2, FDR 0",5.78
same,"fold change (FC), sec11 mRNA","Signal peptidase complex catalytic subunit, FDR 1.55E-131",1.55
same,"fold change (FC), spcs3 mRNA","Signal peptidase complex subunit 3, FDR 2.74E-239",1.77
same,"fold change (FC), sstr3 mRNA","Somatostatin receptor type 3, FDR 3.09E-126",0.42
same,"fold change (FC), stat4 mRNA","Stat 4-like, FDR 9.86E-21",0.86
same,"fold change (FC), stat5a mRNA","Stat5.2 protein, FDR 0.04174356",0.89
same,"fold change (FC), sdf2l mRNA","Stromal cell-derived factor 2-like 1, FDR 1.30E-57",1.55
same,"fold change (FC), tt39b mRNA","Tetratricopeptide repeat protein 39B-like, FDR 6.74E-06",6.76
same,"fold change (FC), rdl mRNA","Thiosulfate sulfurtransferase, FDR 3.51E-111",1.57
same,"fold change (FC), ppp1r10 mRNA","Threonine-protein phosphatase 1 regulatory, FDR 2.43E-39",0.42
same,"fold change (FC), junb mRNA","Transcription factor jun-B, FDR 2.36E-96",1.89
same,"fold change (FC), rhoa mRNA","Transforming protein rhoa, FDR 0.042946",0.32
same,"fold change (FC), tpisb mRNA","Triosephosphate isomerase B, FDR 8.61E-53",0.68
same,"fold change (FC), tph1 mRNA","Tryptophan 5-hydroxylase 1, FDR 0",17.70
same,"fold change (FC), tubb mRNA","Tubulin beta-4B chain, FDR 3.79E-49",0.40
same,"fold change (FC), tsg6 mRNA","Tumor necrosis factor-inducible gene 6 protein, FDR 1.99E-06",5.12
same,"fold change (FC), crh mRNA","Urotensin 1, FDR 6.72E-06",1.74
same,"fold change (FC), snf8 mRNA","Vacuolar-sorting protein SNF8-like, FDR 1.18E-06",0.44
same,"fold change (FC), vdac3 mRNA","Voltage-dependent anion-selective protein 3, FDR 5.87E-44",0.69
same,"fold change (FC), zbtb8 mRNA","Zinc finger domain-containing protein 8A, FDR 1.08E-73",1.69
same,"fold change (FC), zfp36l mRNA","Zinc finger protein 36, C3H type-like 1b, FDR 1.92E-125",0.66
same,"fold change (FC), pim1 mRNA","threonine-protein kinase pim-1, FDR 0",3.25

# — paper PMC9595134, “Novel pituitary actions of GnRH in teleost: The link between reproduction and feeding regulation” (Frontiers in Endocrinology, 2022)
